According to patent US6825230B2, “Spiro and dispiro 1,2,4-trixolane antimalarials” (Medicines for Malaria Venture MMV, priority 2002, dated 2004):
≈ marks a conversion by molar mass, not a printed value. Like-named read-outs stand apart in the source and are kept apart here.

Assays:
P. berghei ANKA strain [1] = test: Divided 3x3 mg/kg and 3x1 mg/kg po doses in infected mice; type: in vivo, Plasmodium berghei
How it was run: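 Male NMRI mice were infected i.v. with 2×10^7 P. berghei-parasitized erythrocytes on day 0, then dosed orally in SSV vehicle on days 1, 2 and 3 post-infection.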

[2] = test system: chloroquine-resistant K1 strain of P. falciparum; test: In vitro antimalarial semiautomated microdilution assay ([3H]-hypoxanthine incorporation), K1 strain; type: cell-based, Plasmodium falciparum; conditions: Plasmodium falciparum, read-out: IC50 (ng/ml) K1
How it was run: (§1)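 IC50 comes from Logit regression of [3H]-hypoxanthine incorporation data. Intraerythrocytic P. falciparum taken from asynchronous stock cultures is exposed to OZ compounds in a semiautomated microdilution format.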

P. berghei ANKA strain [3] = test: Divided 3x10 mg/kg vs single 1x30 mg/kg po dose in infected mice; type: in vivo, Plasmodium berghei
Protocol: (§2) Moro NMRI male mice (Fu Albino specific pathogen free) weighing 18±2 g were infected intravenously (i.v.) with 2×10^7 P. berghei ANKA strain-infected erythrocytes from donor mice on day 0 of the experiment. From donor mice with circa 30% parasitemia, heparinized blood was taken and diluted in physiological saline to 10^8 parasitized erythrocytes per ml. An aliquot (0.2 ml) of this suspension was injected i.v. into experimental and control groups of mice. […] Throughout the experiments, mice were kept in groups of three or five animals in Makrolon type II cages in an air-conditioned animal room at 22 to 23° C.
They were administered per os (p.o.) in a total volume of 0.01 ml per gram of mouse. The activity of the compound was determined by a variety of methods outlined in subsequent sections. Survival time was also recorded, and survival to day 30 post-infection was considered to be a cure.
The first experiment conducted consisted of administration of a divided 3×10 mg/kg p.o. dose administered on days 1, 2, and 3 post-infection vs. a single 1×30 mg/kg po dose administered on day 1 post-infection. On day 4 post-infection, blood smears of all animals were prepared and stained with Giemsa. […] Compounds were administered orally in the SSV vehicle.

[4] = test system: ANKA strain of P. berghei; test: Single dose STI in vivo screen in infected mice; parameters: species or system Plasmodium berghei; conditions: for Survival (days) 10 mg/kg SSV po: single 10 mg/kg po in SSV, untreated 6-7 days
P. berghei ANKA strain [5] = test: Onset of action and recrudescence experiment, single 100 mg/kg po; type: in vivo, Plasmodium berghei; conditions: single 100 mg/kg po (SSV) on day +3 post-infection; recrudescence = >5% parasitemia; followed up to 60 days; groups of five
Protocol: The onset of drug action was determined after a single fixed dose of 100 mg/kg (SSV vehicle) po to groups of five animals on day +3 post-infection (day 0).
as §2

[6] = test system: chloroquine-sensitive NF54 strain of P. falciparum; test: In vitro antimalarial semiautomated microdilution assay ([3H]-hypoxanthine incorporation), NF54 strain; type: cell-based, Plasmodium falciparum; conditions: Plasmodium falciparum, read-out: IC50 (ng/ml) NF54
How it was run: as §1

[7] = test system: ANKA strain of Plasmodium berghei; test: Single dose ED50/ED90/ED99 determination in infected mice; type: in vivo
How it was run: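 Moro SPF or NMRI mice (three per group) infected with P. berghei ANKA were dosed once on day 1 post-infection in SSV (0.5% CMC, 0.5% benzyl alcohol, 0.4% Tween 80, 0.9% NaCl). Parasitemia reduction was scored on day 3; ED values (mg/kg) came from nonlinear fitting.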

[8] = test system: Schistosoma mansoni adult worms (49-day-old); test: Effect on adult schistosomes (49-day-old) in infected mice; type: in vivo
Protocol: Mice were infected with 100 Schistosoma mansoni cercariae on day 49 post-treatment. Each group was treated per os with OZ compounds at single doses of 200, 400, and 600 mg/kg. Untreated mice served as the control. All groups were killed 4 weeks after treatment and the liver and intestine were removed and separated. The liver and intestine were compressed and alive male and female worms could be seen and counted.

[9] = test system: Schistosoma mansoni 21-day-old schistosomules; test: Effect on 21-day-old schistosomules in infected mice; type: in vivo
Protocol: Mice were infected with 100 Schistosoma mansoni cercariae on day 21 post-treatment. Each group was treated per os with trioxolanes at a single dose of 200 mg/kg. […] All groups were killed 4 weeks after treatment and the liver and intestine were removed and separated. The liver and intestine were compressed and alive male and female worms could be seen and counted. The effect of the compounds was evaluated by mean total and female worm burden.

P. berghei ANKA strain [10] = test: Prophylactic activity, single 100 mg/kg po at various times before infection; type: in vivo, Plasmodium berghei; conditions: parasitemia reduction on day 3 post-infection
Protocol: as §2
Prophylactic activities of the compounds were compared after administering po single dose of 100 mg/kg to different groups of five animals at various times before infection. All groups including an untreated control group, were then infected at the same time. Parasitemia was determined for each animal on day 3 post-infection, and percent of reduction of the level of parasitemia compared to levels for animals given no drug is determined.

Schistosoma japonicum = test: Effect in mice infected with Schistosoma japonicum; type: in vivo; conditions: age of worm 35 days, 400 mg/kg x 1
[11] = 3 × 1 mg/kg p.o. SSV on days 1, 2, 3 post-infection
[12] = 3 × 3 mg/kg p.o. SSV on days 1, 2, 3 post-infection
[13] = single dose po in SSV on day 1 post-infection, parasitemia day 3, nonlinear fitting

Structure (SMILES): CCN(CC)CCCC(C)Nc1ccnc2cc(Cl)ccc12 (stereo not shown) [CQ, chloroquine, reference compound]
- Survival (P. berghei ANKA strain [1]; [11]): 7.2 days
- Survival (P. berghei ANKA strain [1]; [12]): 10 days
- IC50 ([2]; K1, 72 h): 76 ng/mL (≈ 238 nM)
- Cures 3 × 10 mg/kg p.o. SSV (P. berghei ANKA strain [3]; 10 mg/kg po on days 1, 2, 3, cure = survival to day 30 post-infection): 0/5
- Survival (days) 3 × 10 mg/kg p.o. SSV (P. berghei ANKA strain [3]; 10 mg/kg po on days 1, 2, 3 post-infection): 14.3 days
- Survival (days) 1 × 30 mg/kg p.o. SSV (P. berghei ANKA strain [3]; single 30 mg/kg po on day 1 post-infection): 9.5 days
- Cures 1 × 30 mg/kg p.o. SSV (P. berghei ANKA strain [3]; single 30 mg/kg po, cure = survival to day 30 post-infection): 0/5
- Survival (days) 3 mg/kg SSV po ([4]; single 3 mg/kg po in SSV): 8.0 days
- Survival (days) 10 mg/kg SSV po [4]: 9.0 days
- Time of Recrudescence (P. berghei ANKA strain [5]): 17.8 days
- IC50 ([6]; NF54, 72 h): 4.4 ng/mL (≈ 13.8 nM)
- ED99 [7, 13]: 5.9 mg/kg

Structure (SMILES): CC1(C)COC2(CCC3(CC2)OOC2(O3)C3CC4CC(C3)CC2C4)OC1 (stereo not shown) [OZ11]
- % reduction of adult worms growth at day 49 after per os application of 400 mg/kg, TWR (%) ([8]; single 400 mg/kg per os, 49-day-old adults, total worm reduction rate): 16%
- Adult worms day 49, per os 400 mg/kg, DEAD WORM (%) ([8]; single 400 mg/kg per os, percentage of dead worm in the liver): 4%
- Time of Recrudescence (P. berghei ANKA strain [5]): 22.2 days
- % reduction of schistosomule growth at day 21 after per os application of 200 mg/kg, FWR (%) ([9]; single 200 mg/kg per os, 21-day-old schistosomules, female worm reduction rate): 84%
- % reduction of schistosomule growth at day 21 after per os application of 200 mg/kg, TWR (%) ([9]; single 200 mg/kg per os, 21-day-old schistosomules, total worm reduction rate): 85%
- ED90 [7, 13]: 6.2 mg/kg
- ED99 [7, 13]: 8.2 mg/kg

Structure (SMILES): CO[C@H]1O[C@@H]2O[C@@]3(C)CC[C@H]4[C@H](C)CC[C@@H]([C@H]1C)[C@@]24OO3 [AM, artemether, reference compound]
- Survival (P. berghei ANKA strain [1]; [11]): 7.2 days
- Survival (P. berghei ANKA strain [1]; [12]): 9.4 days
- Activity (%) (P. berghei ANKA strain [1]; 3 × 3 mg/kg p.o. SSV on days 1, 2, 3 post-infection, percent reduction of parasitemia vs control on day 4): 86%
- Activity (%) (P. berghei ANKA strain [1]; po, 1 mg/kg, 96 h): 51%
- Cures (P. berghei ANKA strain [1]; po, 3 mg/kg, 720 h): 0\5
- % reduction of adult worms growth at day 49 after per os application of 400 mg/kg, TWR (%) ([8]; po, 400 mg/kg, 1176 h): 53%
- Adult worms day 49, per os 400 mg/kg, DEAD WORM (%) ([8]; po, 400 mg/kg, 1176 h): 29%
- IC50 ([2]; chloroquine-resistant K1 strain, 72 h incubation): 0.45 ng/mL (≈ 1.51 nM)
- Survival (days) 3 mg/kg SSV po ([4]; single 3 mg/kg po in SSV): 8.7 days
- Activity (%) 3 mg/kg SSV po ([4]; single 3 mg/kg po in SSV, percent reduction in parasitemia on day 3): 79%
- Survival (days) 10 mg/kg SSV po [4]: 9.4 days
- Activity (%) 10 mg/kg SSV po ([4]; single 10 mg/kg po in standard suspending vehicle (SSV) on day 1 post-infection, percent reduction in parasitemia on day 3): 99.75%
- Time of Recrudescence (P. berghei ANKA strain [5]): 12.0 days
- Prophylactic Activity (%) 24 h (P. berghei ANKA strain [10]; single 100 mg/kg po 24 h before infection): 0%
- Prophylactic Activity (%) 0 h (P. berghei ANKA strain [10]; single 100 mg/kg po at 0 h): 100%
- % reduction of schistosomule growth at day 21 after per os application of 200 mg/kg, FWR (%) ([9]; po, 200 mg/kg, 504 h): (n2) 78%
- % reduction of schistosomule growth at day 21 after per os application of 200 mg/kg, TWR (%) ([9]; po, 200 mg/kg, 504 h): (n2) 81%
- Mice without female worm (Schistosoma japonicum): 0/7
- MFWB (mean female worm burden) x ± SD (Schistosoma japonicum; control 11.6 ± 2.4): 3.4 ± 1.6
- MTWB (mean total worm burden) x ± SD (Schistosoma japonicum; control 26.6 ± 4.2): 10.1 ± 4.4
- IC50 ([6]; chloroquine-sensitive NF54 strain, 72 h incubation): 0.36 ng/mL (≈ 1.21 nM)
- ED50 ([7]; Plasmodium berghei, single dose po in SSV on day 1 post-infection, parasitemia day 3, nonlinear fitting, read-out: ED50): 2.2 mg/kg
- ED90 ([7]; po): 4.2 mg/kg
- ED99 [7, 13]: 7.1 mg/kg
